Calls of active or inactive are those of the source. No cut-off for these calls is given here. Where a SMILES comes first, the peptide text is derived from it.
How the values were obtained:
[1] = Stability in Wistar rat plasma at 10 uM measured up to 3 hrs by LC/MS/MS analysis; assay type: ADME, cell-free; settings: read-out: Stability
[2] = Elimination half life in Wistar rat liver homogenate at 10 uM by LC/MS/MS analysis; assay type: ADME, tissue-based; settings: read-out: beta t1/2
[3] = biological target: Proteinase-activated receptor 2 (Homo sapiens) (UniProt P55085); assay: Antagonist activity at PAR2 in human HT-29 cells assessed as inhibition of 2f-LIGRLO-NH2-stimulated intracellular calcium release at 10 uM preincubated for 30 mins followed by 2f-LIGRLO-NH2 stimulation measured for 60 secs by Fluo-3 AM dye based FLIPR assay relative to control; assay type: functional, cell-based
[4] = AUC (0 to 6 hrs) in Wistar rat at 10 mg/kg, po administered via gavage; assay type: ADME, organism-based; set-up: time < 6 hr, dose 10 mg/kg, route oral; settings: in vivo
[5] = Time at which maximum plasma concentration stays above 2 times in vitro PAR2 IC50 in Wistar rat at 10 mg/kg, po administered via gavage; assay type: ADME, organism-based; settings: in vivo
[6] = system: Rattus norvegicus; assay: Antiinflammatory activity in Wistar rat acute paw edema model assessed as inhibition of 2f-LIGRLO-NH2-induced […] swelling at 10 mg/kg administered via oral gavage for 2 hrs followed by 2f-LIGRLO-NH2 addition measured up to 3 hrs; assay type: functional, organism-based
[7] = biological target: Proteinase-activated receptor 2 (Homo sapiens) (UniProt P55085); assay: Agonist activity at PAR2 in human HT-29 cells assessed as increase in intracellular calcium release at 10 uM incubated for 30 mins measured for 60 secs by Fluo-3 AM dye based FLIPR assay relative to 2f-LIGRLO-NH2; assay type: functional, cell-based
[8] = biological target: T1, Proteinase-activated receptor 2 (Homo sapiens, UniProt P55085); assay: Antagonist activity at PAR2 in human HT-29 cells assessed as inhibition of 2f-LIGRLO-NH2-stimulated intracellular calcium release preincubated for 30 mins followed by 2f-LIGRLO-NH2 stimulation measured for 60 sec by Fluo-3 AM dye based FLIPR assay; assay type: functional, cell-based
T1 sequence (P55085 whole entry): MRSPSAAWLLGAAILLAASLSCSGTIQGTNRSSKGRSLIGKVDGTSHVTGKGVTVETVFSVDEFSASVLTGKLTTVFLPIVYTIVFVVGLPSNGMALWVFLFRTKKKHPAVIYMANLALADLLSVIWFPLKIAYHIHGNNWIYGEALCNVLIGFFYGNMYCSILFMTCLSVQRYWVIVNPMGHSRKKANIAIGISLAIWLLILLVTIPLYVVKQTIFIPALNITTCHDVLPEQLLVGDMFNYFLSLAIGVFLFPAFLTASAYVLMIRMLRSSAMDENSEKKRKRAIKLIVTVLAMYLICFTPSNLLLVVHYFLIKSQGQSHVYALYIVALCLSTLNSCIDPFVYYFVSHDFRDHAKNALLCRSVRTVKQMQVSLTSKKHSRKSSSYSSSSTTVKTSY

[9] = biological target: T1, Proteinase-activated receptor 2; assay: Antagonist activity at PAR2 in human HT-29 cells assessed as inhibition of endogenous trypsin-stimulated intracellular calcium release by Fluo-3 AM dye based FLIPR assay; assay type: functional, cell-based
[10] = biological target: T1, Proteinase-activated receptor 2; assay: Agonist activity at PAR2 in human HT-29 cells assessed as increase in intracellular calcium release incubated for 30 mins measured for 60 secs by Fluo-3 AM dye based FLIPR assay relative to 2f-LIGRLO-NH2; assay type: functional, cell-based
[11] = Solubility of compound; assay type: physicochemical
[12] = Half life in Wistar rat plasma at 10 uM by LC/MS/MS analysis; assay type: ADME, cell-free

| Compound | inhibition [3] [%] | Activity [7] [%] | other results |
| --- | --- | --- | --- |
| CC[C@H](C)[C@H](NC(=O)[C@H](CC1CCCCC1)NC(=O)c1ccno1)C(=O)N1CCC(c2ccccc2)CC1 | 93 |  | remaining at 3 h, 10 µM [1]: > 75%; half-life at 10 µM [2]: 30 min; AUC(0-t) at 6 h [4]: 1960 ng·h/mL; Time [5]: 2 to 3 h; inhibition [6]: Active |
| O=C(N[C@@H](CC1CCCCC1)C(=O)N[C@@H](CC1CCCCC1)C(=O)N1CCC2(C=Cc3ccccc32)CC1)c1ccno1 | 10 to 16 |  |  |
| CC[C@H](C)[C@H](NC(=O)[C@H](CC1CCCCC1)NC(=O)c1ccno1)C(=O)N1CCC2(CC1)OC(=O)c1ccccc12 |  | 62 to 70 | EC50 [10]: 700 to 1800 nM |
| O=C(N[C@@H](CC1CCCCC1)C(=O)N[C@@H](Cc1cnc[nH]1)C(=O)N1CCC2(C=Cc3ccccc32)CC1)c1ccno1 |  | 53 to 81 |  |
| CC[C@H](C)[C@H](NC(=O)[C@H](CC1CCCCC1)NC(=O)c1ccno1)C(=O)N1CCC(c2cc(OC)ccc2OC)CC1 | 43 to 69 |  |  |
| CC[C@H](C)[C@H](NC(=O)[C@H](CC1CCCCC1)NC(=O)c1ccno1)C(=O)N1CCCC[C@H]1C(=O)NC(C)(C)C | 64 |  |  |
| CC[C@H](C)[C@H](NC(=O)[C@H](CC1CCCCC1)NC(=O)c1ccno1)C(=O)N1CCC(c2ccc(Cl)cc2)CC1 | 43 to 69 |  |  |
| CC[C@H](C)[C@H](NC(=O)[C@H](CC1CCCCC1)NC(=O)c1ccno1)C(=O)N1CC[C@H]2CCCC[C@H]2[C@H]1C(=O)NC(C)(C)C | 38 |  |  |
| CC[C@H](C)[C@H](NC(=O)[C@H](CC(C)C)NC(=O)[C@@H](N)CO)C(=O)NCC(=O)N[C@@H](CCCNC(=N)N)C(=O)N[C@@H](CC(C)C)C(N)=O (H-SLIGRL-NH2) |  |  | half-life at 10 µM [2]: 15 min; half-life at 10 µM [12]: 20 min |
| CC[C@H](C)[C@H](NC(=O)[C@H](CC1CCCCC1)NC(=O)c1ccno1)C(=O)N1CCC2(CC1)CC(=O)c1ccccc1O2 |  | 62 to 70 | EC50 [10]: 700 to 1800 nM |
| CC[C@H](C)[C@H](NC(=O)[C@H](CC1CCCCC1)NC(=O)c1ccno1)C(=O)N1CCC2(CC1)c1ccccc1C1OC12 (some centres undefined) |  | 65 | EC50 [10]: 700 to 1800 nM |
| CC[C@H](C)[C@H](NC(=O)[C@H](CC1CCCCC1)NC(=O)c1ccno1)C(=O)N1CCC(c2ccccc2C(F)(F)F)CC1 | 43 to 69 |  |  |
| CC[C@H](C)[C@H](NC(=O)[C@H](CC1CCCCC1)NC(=O)c1ccno1)C(=O)N1CCN(Cc2ccc(F)cc2)CC1 |  | 30 to 50 |  |
| CC[C@H](C)[C@H](NC(=O)[C@H](CC1CCCCC1)NC(=O)c1ccno1)C(=O)N1CCC(c2ccc(OC)cc2)CC1 | 43 to 69 |  |  |
| CC[C@H](C)[C@H](NC(=O)[C@H](CC1CCCCC1)NC(=O)c1ccno1)C(=O)N1CCN(c2ccccc2)CC1 |  | 30 to 50 |  |
| CC[C@H](C)[C@H](NC(=O)[C@H](CC1CCCCC1)NC(=O)c1ccno1)C(=O)N1CCC2(CCc3ccccc3O2)CC1 | 77 |  | IC50 ([8]; read-out: IC50): 1900 nM |
| CC[C@H](C)[C@H](NC(=O)[C@H](CC1CCCCC1)NC(=O)c1ccno1)C(=O)N1CCc2cc(OC)c(OC)cc2C1 |  | 65 |  |
| CC[C@H](C)[C@H](NC(=O)[C@H](CC1CCCCC1)NC(=O)c1ccno1)C(=O)N1CCC(O)(c2ccc(C(F)(F)F)cc2C(F)(F)F)CC1 | 43 to 69 |  |  |
| CC[C@H](C)[C@H](NC(=O)[C@H](CC1CCCCC1)NC(=O)c1ccno1)C(=O)N1CCC(NC(C)=O)(c2ccccc2)CC1 |  | 81 |  |
| CC[C@H](C)[C@H](NC(=O)[C@H](CC1CCCCC1)NC(=O)c1ccno1)C(=O)N1CCN(c2ccc(F)cc2)CC1 |  | 30 to 50 |  |

Now from value to compound, other results behind:

| inhibition [3] [%] | Activity [7] [%] | Compound | other results |
| --- | --- | --- | --- |
|  | 53 to 81 | NC(=O)C[C@H](NC(=O)[C@H](CC1CCCCC1)NC(=O)c1ccno1)C(=O)N1CCC2(C=Cc3ccccc32)CC1 |  |
|  | 53 to 81 | CO[C@H](C)[C@H](NC(=O)[C@H](CC1CCCCC1)NC(=O)c1ccno1)C(=O)N1CCC2(C=Cc3ccccc32)CC1 |  |
| 92 |  | CC[C@H](C)[C@H](NC(=O)[C@H](CC1CCCCC1)NC(=O)c1ccno1)C(=O)N1CCC2(C=Cc3ccccc32)CC1 | remaining at 3 h, 10 µM [1]: > 75%; half-life at 10 µM [2]: 60 min; IC50 ([8]; read-out: IC50): 1100 to 1700 nM; IC50 ([8]; read-out: pIC50 (converted)): 1580 nM; IC50 [9]: 3600 nM |
| 10 to 16 |  | CC(C)(C)[C@H](NC(=O)[C@H](CC1CCCCC1)NC(=O)c1ccno1)C(=O)N1CCC2(C=Cc3ccccc32)CC1 |  |
| 62 |  | CC[C@H](C)[C@H](NC(=O)[C@H](CC1CCCCC1)NC(=O)c1cc(CN)no1)C(=O)N1CCC2(C=Cc3ccccc32)CC1 | IC50 ([8]; read-out: IC50): 8900 nM; IC50 ([8]; read-out: pIC50 (converted)): 10000 nM; solubility [11]: Soluble |
| 43 |  | CC[C@H](C)[C@H](NC(=O)[C@H](CC1CCCCC1)NC(=O)c1nc[nH]n1)C(=O)N1CCC2(C=Cc3ccccc32)CC1 |  |
| 91 |  | CC[C@H](C)[C@H](NC(=O)[C@H](CC1CCCCC1)NC(=O)c1cc(N)no1)C(=O)N1CCC2(C=Cc3ccccc32)CC1 | remaining at 3 h, 10 µM [1]: > 75%; half-life at 10 µM [2]: 15 min; inhibition [6]: Active; solubility [11]: Soluble |
| 27 | 21 | CC[C@H](C)[C@H](NC(=O)[C@H](CC1CCCCC1)NC(=O)c1ccon1)C(=O)N1CCC2(C=Cc3ccccc32)CC1 |  |
|  | 26 | CC[C@H](C)[C@H](NC(=O)[C@H](CC1CCCCC1)NC(=O)c1cc(N)n[nH]1)C(=O)N1CCC2(C=Cc3ccccc32)CC1 |  |
| 10 to 16 |  | CC(C)(NC(=O)[C@H](CC1CCCCC1)NC(=O)c1ccno1)C(=O)N1CCC2(C=Cc3ccccc32)CC1 |  |
|  | 53 to 81 | C[C@@H](O)[C@H](NC(=O)[C@H](CC1CCCCC1)NC(=O)c1ccno1)C(=O)N1CCC2(C=Cc3ccccc32)CC1 |  |
|  | 11 | NCC[C@H](NC(=O)[C@H](CC1CCCCC1)NC(=O)c1ccno1)C(=O)N1CCC2(C=Cc3ccccc32)CC1 |  |
| 53 |  | CC[C@H](C)[C@H](NC(=O)[C@H](CC1CCCCC1)NC(=O)c1c[nH]cn1)C(=O)N1CCC2(C=Cc3ccccc32)CC1 | IC50 ([8]; read-out: IC50): 3100 nM; solubility [11]: Soluble |
| 70 |  | CC[C@H](C)[C@H](NC(=O)[C@H](CC1CCCCC1)NC(=O)c1cscn1)C(=O)N1CCC2(C=Cc3ccccc32)CC1 |  |
